Measured values from patent US6946121B2, “Composition in particular cosmetic or dermatological composition, containing oligosaccharides and preparation method and cosmetic treatment method” (Laboratories G Pharm, priority 1999, dated 2005).
“Also recorded” adds a separate entry of the source.

Tested on: human basophils
Assay: antidegranulating or antiactivating activity on human basophils by flow cytometry (anti-IgE stimulation, CD63 label)
Type: cell-based
Details: in vitro, same experimental conditions as the oligosaccharides
Procedure: In order to test the antidegranulating or antiactivating activity of the oligosaccharides on human basophils by flow cytometry, leukocyte suspensions from different individuals selected as being good at responding to anti-IgE were used to isolate the leukocytes, by simple sedimentation at 1 g. These leukocytes are preincubated for 30 minutes with successive dilutions from 10 to 0.01 mg/ml of the test product. The basophils are then stimulated with a target concentration of a human anti-IgE labeled with a mixture of anti-IgE FITC and anti-CD63PE antibodies, CD63 being an activation label for human basophils. The percentages of activation or of inhibition are then calculated by flow cytometry. The biological activity of the oligosaccharides was thus evaluated.
The same biological tests were performed on structural analogs such as raffinose or oligosaccharides comprising an α bond between a galactose unit and another saccharide unit such as in melibiose.
Tests were thus undertaken. […] The percentage of inhibition was calculated by repeating the experiment three times.

OC[C@H]1O[C@H](OCC2O[C@@H](O)[C@H](O)[C@@H](O)[C@@H]2O)[C@H](O)[C@@H](O)[C@H]1O (stereo partly shown) [melibiose]
activity on leukocytes / mastocytes: not active; also recorded: absolutely no activity
